Results published in patent US20140308668A1, “Method of Determining Susceptibility of a Tumor Cell to a Chemotherapeutic Agent: Novel Use of Herpes SImplex Virus” (priority 2008, published 2014).

Experiments:
Breast tumor (SKBR3) = conditions: cited from earlier work
Hepatic tumor (SNU182) = conditions: cited from earlier work
Gastric tumor (257P) = conditions: cited from earlier work
Melanoma (A375) = conditions: cited from earlier work
[1] = system: Pancreatic tumor (181/85P); conditions: cited from earlier work
Ovarian tumor (ES-2) = conditions: cited from earlier work
Breast tumor (R193) = conditions: cited from earlier work
Hepatic tumor (Hep3B) = conditions: cited from earlier work
Hepatic tumor (SNU423) = conditions: cited from earlier work
Hs578T tumor cells = experiment: Apoptotic killing of Hs578T tumor cells (morphological alternations by microscopy/Hoechst, death factor processing by immunoblot); format: cell-based
Experimental: We have established an in vitro cell model and examined herpes simplex virus-induced apoptotic killing of tumor cells. In the first series of studies, we used a standard inducer of apoptotic killing. A protein kinase inhibitor (i.e., staurosporine) was used. Mammary tumor cells (Hs578T) were cultured and treated with staurosporine (0.1-2 μM) for about 12-18 hours. […] (FIG. 1).
Using Hs578T cells, we next examined whether herpes simplex virus (HSV) can induce apoptotic killing in these tumor cells. Standard methods were used to prepare wild-type HSV-1 (i.e., wtHSV-1). (Blaho et al.: Herpes Simplex Virus: Propagation, Quantification, and Storage. Current Protocols in Microbiology. Wiley & Sons. 14:1-23, 2005). Hs578T cells were infected with wtHSV-1 and examined for tumor cell apoptotic killing. A range of wtHSV-1 concentration was used and we observed that one particle of wtHSV-1 was sufficient to induce apoptotic killing of a tumor cell. Apoptotic killing was evaluated at 24-hour post infection by monitoring morphological alternations and presence of death factor processing as detailed above.
INFECTION OF TUMOR CELLS WITH HSV MUTANTS: Approximately 1×10^6 cells (i.e., tumor cells) were exposed to 10 plaque forming units (PFU) per ml of ΔICP27 virus in 1 ml of 5% NBCS for 1 hour at 37° C. After this adsorption step, the medium was removed and discarded. 3 ml of fresh 5 NBCS was then added. […]
MICROSCOPIC ANALYSIS OF HSV INFECTED TUMOR CELLS: The morphology of HSV infected cells was analyzed by phase contrast and fluorescence microscopy using an Olympus IX70/IX-FLA inverted fluorescence microscope. […]
For visualization of chromatin condensation in live cells, […] Hoechst 33258 (Sigma) per ml was added to the medium and allowed to incubate at 37° C. for 30 min. The percentage (%) of nuclei containing condensed chromatin was determined by dividing the number of brightly stained, small (condensed) nuclei by the total number of nuclei (uncondensed plus condensed) in a particular (640) microscopic field. At least 100 nuclei were counted for each data point. […]

MCF-7 = experiment: Apoptotic killing of MCF-7 breast tumor cells; format: cell-based; conditions: MCF-7 tumor cells
HEp-2 cells = experiment: Apoptotic killing of HEp-2 tumor cells (morphological alternations and death factor processing); format: cell-based, human; conditions: for apoptotic killing (morphological alternations and death factor processing): doxorubicin 10 μM, etoposide 125 μM, data not shown
Text: We also examined if a different type of herpes simplex virus (i.e., HSV-2) may induce apoptotic killing of tumor cells. Standard methods were used to prepare wild-type HSV-2 (i.e., wtHSV-2). (Blaho et al.: Herpes Simplex Virus: Propagation, Quantification, and Storage. Current Protocols in Microbiology. Wiley & Sons. 14:1-23, 2005). Tumor cells (human carcinoma HEp-2) were used and infected with wtHSV-2. […] In particular, wtHSV-2 caused both the morphological alternations and death factor processing (data not shown). Thus, infection of Hs578T and HEp-2 cells with wtHSV-1 and wtHSV-2, respectively, leads to substantial apoptotic killing of tumor cells.
We examined tumor cell killing by chemotherapeutic agents. In this study, HEp-2 cells were treated with varying amounts of doxorubicin and etoposide. Apoptotic killing was measured using the method detailed above. […] Thus, these tumor cells were sensitive to chemotherapeutic agents.
INFECTION OF TUMOR CELLS WITH HSV MUTANTS: Approximately 1×10^6 cells (i.e., tumor cells) were exposed to 10 plaque forming units (PFU) per ml of ΔICP27 virus in 1 ml of 5% NBCS for 1 hour at 37° C. After this adsorption step, the medium was removed and discarded. 3 ml of fresh 5 NBCS was then added. Cells were maintained at 37° C. for at least 18 hours.
MICROSCOPIC ANALYSIS OF HSV INFECTED TUMOR CELLS: The morphology of HSV infected cells was analyzed by phase contrast and fluorescence microscopy using an Olympus IX70/IX-FLA inverted fluorescence microscope. Images were acquired using a Sony DKC-5000 digital photo camera linked to a PowerMac workstation and processed through Adobe Photoshop.
For visualization of chromatin condensation in live cells, […] Hoechst 33258 (Sigma) per ml was added to the medium and allowed to incubate at 37° C. for 30 min. The percentage (%) of nuclei containing condensed chromatin was determined by dividing the number of brightly stained, small (condensed) nuclei by the total number of nuclei (uncondensed plus condensed) in a particular (640) microscopic field. At least 100 nuclei were counted for each data point. The percentage (%) of chromatin condensation is represented as the mean±SD of three independent experiments.
IMMUNOBLOT ANALYSIS OF HSV INFECTED TUMOR CELLS: Whole-cell protein extract was prepared using lysis buffer (50 mM Tris/HCl, pH 7.5, 150 mM NaCl, 1% Triton X-100,1% deoxycholate, 0.1% SDS) supplemented with 2 mM PMSF (freshly prepared stock), 1% Translysol, 0.1 mM L-1-chloro-3-(4-tosylamido)-4-phenyl-2-butanone, 0.01 mM L-1-chlor-3-(4-tosylamido)-7-amino-2-heptanon-hydrochloride. Protein concentrations were determined using a modified Bradford protein assay (Bio-Rad Laboratories). […]

Q: Which results are given for `O=c1[nH]cc(F)c(=O)[nH]1` [5-Fluorouracil, 5-fluorouracil]?
A: Resistant or Sensitive to Chemotherapeutic Agents (Breast tumor (SKBR3)): Sensitive; Resistant or Sensitive to Chemotherapeutic Agents (Hepatic tumor (SNU182)): Resistant; Resistant or Sensitive to Chemotherapeutic Agents (Gastric tumor (257P)): Resistant; Resistant or Sensitive to Chemotherapeutic Agents (Melanoma (A375)): Resistant; Resistant or Sensitive to Chemotherapeutic Agents [1]: Sensitive; Resistant or Sensitive to Chemotherapeutic Agents (Ovarian tumor (ES-2)): Sensitive; Resistant or Sensitive to Chemotherapeutic Agents (Breast tumor (R193)): Sensitive; Resistant or Sensitive to Chemotherapeutic Agents (Hepatic tumor (Hep3B)): Resistant; Resistant or Sensitive to Chemotherapeutic Agents (Hepatic tumor (SNU423)): Resistant

Q: For `N.N.[Cl][Pt][Cl]` [Cisplatin, cisplatin], which “Resistant or Sensitive to Chemotherapeutic Agents” value (shortened to “Resistant or Sensitive”) (Breast tumor (SKBR3)) is on record?
A: Resistant

Q: What about the “Resistant or Sensitive” value (Hepatic tumor (SNU182)) of the same molecule?
A: Resistant

Q: And the “Resistant or Sensitive” value (Gastric tumor (257P))?
A: Resistant

Q: What about the “Resistant or Sensitive” value (Melanoma (A375)) of the same molecule?
A: Resistant

Q: What about the “Resistant or Sensitive” value [1] of the same molecule?
A: Resistant

Q: And the “Resistant or Sensitive” value (Ovarian tumor (ES-2))?
A: Resistant

Q: And the “Resistant or Sensitive” value (Breast tumor (R193))?
A: Resistant

Q: And the “Resistant or Sensitive” value (Hepatic tumor (Hep3B))?
A: Resistant

Q: What about the “Resistant or Sensitive” value (Hepatic tumor (SNU423)) of the same molecule?
A: Resistant

Q: For `C[C@@H]1C[C@@H]([C@H](O)CC2CC(=O)NC(=O)C2)C(=O)[C@@H](C)C1` [Cycloheximide, cycloheximide], which apoptotic effects (Hs578T tumor cells; cycloheximide alone, data not shown) is on record?
A: no apparent apoptotic effects

Q: Which “Resistant or Sensitive” value (Breast tumor (SKBR3)) does the source give for `COc1cccc2c1C(=O)c1c(O)c3c(c(O)c1C2=O)C[C@@](O)(C(=O)CO)C[C@@H]3O[C@H]1C[C@H](N)[C@H](O)[C@H](C)O1` [Doxorubicin, doxorubicin] here?
A: Resistant

Q: What about the “Resistant or Sensitive” value (Hepatic tumor (SNU182)) of the same molecule?
A: Resistant

Q: And the “Resistant or Sensitive” value (Gastric tumor (257P))?
A: Resistant

Q: What about the “resistance of tumor cells to chemotherapeutic agent (drug-induced apoptosis)” value (MCF-7) of the same molecule?
A: resistant

Q: And the “Resistant or Sensitive” value (Melanoma (A375))?
A: Resistant

Q: And the “sensitivity of tumor cells to chemotherapeutic agent” value (HEp-2 cells)?
A: sensitive

Q: And the “apoptotic killing (morphological alternations and death factor processing)” value (HEp-2 cells)?
A: induce morphological alternations and death factor processing

Q: What about the “Resistant or Sensitive” value [1] of the same molecule?
A: Resistant

Q: And the “Resistant or Sensitive” value (Ovarian tumor (ES-2))?
A: Resistant

Q: What about the “Resistant or Sensitive” value (Breast tumor (R193)) of the same molecule?
A: Resistant

Q: And the “Resistant or Sensitive” value (Hepatic tumor (Hep3B))?
A: Resistant

Q: And the “Resistant or Sensitive” value (Hepatic tumor (SNU423))?
A: Resistant

Q: Which results are given for `COc1cc([C@@H]2c3cc4c(cc3[C@@H](O[C@@H]3O[C@@H]5CO[C@@H](C)O[C@H]5[C@H](O)[C@H]3O)[C@H]3COC(=O)[C@H]23)OCO4)cc(OC)c1O` [Etoposide, etoposide]?
A: Resistant or Sensitive to Chemotherapeutic Agents (Breast tumor (SKBR3)): Resistant; Resistant or Sensitive to Chemotherapeutic Agents (Hepatic tumor (SNU182)): Resistant; Resistant or Sensitive to Chemotherapeutic Agents (Gastric tumor (257P)): Resistant; resistance of tumor cells to chemotherapeutic agent (drug-induced apoptosis) (MCF-7): resistant; Resistant or Sensitive to Chemotherapeutic Agents (Melanoma (A375)): Resistant; sensitivity of tumor cells to chemotherapeutic agent (HEp-2 cells): sensitive; apoptotic killing (morphological alternations and death factor processing) (HEp-2 cells): induce morphological alternations and death factor processing; Resistant or Sensitive to Chemotherapeutic Agents [1]: Resistant; Resistant or Sensitive to Chemotherapeutic Agents (Ovarian tumor (ES-2)): Resistant; Resistant or Sensitive to Chemotherapeutic Agents (Breast tumor (R193)): Resistant; Resistant or Sensitive to Chemotherapeutic Agents (Hepatic tumor (Hep3B)): Resistant; Resistant or Sensitive to Chemotherapeutic Agents (Hepatic tumor (SNU423)): Resistant

Q: For `CC(=O)O[C@H]1C(=O)[C@@]2(C)[C@H]([C@H](OC(=O)c3ccccc3)[C@]3(O)C[C@H](OC(=O)[C@H](O)[C@@H](NC(=O)c4ccccc4)c4ccccc4)C(C)=C1C3(C)C)[C@]1(OC(C)=O)CO[C@@H]1C[C@@H]2O` [Paclitaxel, paclitaxel], which “Resistant or Sensitive” value (Breast tumor (SKBR3)) is on record?
A: Sensitive

Q: And the “Resistant or Sensitive” value (Hepatic tumor (SNU182))?
A: Resistant

Q: What about the “Resistant or Sensitive” value (Gastric tumor (257P)) of the same molecule?
A: Sensitive

Q: And the “Resistant or Sensitive” value (Melanoma (A375))?
A: Sensitive

Q: What about the “Resistant or Sensitive” value [1] of the same molecule?
A: Sensitive

Q: What about the “Resistant or Sensitive” value (Ovarian tumor (ES-2)) of the same molecule?
A: Resistant

Q: And the “Resistant or Sensitive” value (Breast tumor (R193))?
A: Sensitive

Q: And the “Resistant or Sensitive” value (Hepatic tumor (Hep3B))?
A: Resistant

Q: What about the “Resistant or Sensitive” value (Hepatic tumor (SNU423)) of the same molecule?
A: Sensitive

Q: What does the source list for `CN[C@@H]1C[C@H]2O[C@@](C)([C@@H]1OC)n1c3ccccc3c3c4c(c5c6ccccc6n2c5c31)C(=O)NC4` [Staurosporine, staurosporine]?
A: Death Factor Processing Poly(ADP-ribose) Polymerase, Procaspase 3, and DNA Fragmentation Factor-45 (Hs578T tumor cells; immunoblot): drastic death factor processing; chromatin condensation (percentage of nuclei containing condensed chromatin) (Hs578T tumor cells; staurosporine 0.1-2 μM, about 12-18 hours, mean±SD of three independent experiments): 86±14%
